PubChem BioAssay AID588565 (Sanford-Burnham Center for Chemical Genomics, 2011)
Calls of active or inactive are those of the source.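 How the source made its calls: active means cytotoxic at 24 hours, with mean IC50 of 20 µM or lower; inactive means the rest.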

Test system: CHO-XBP1 cytotoxicity, ATPlite luminescence, 24 h
Assay: cytotoxicity in CHO-XBP1 reporter cells, SAR follow-up, cytotoxicity control for UPR adaptive arm activator project, cell-based, 24 h exposure, ATPlite luminescence (AID 588565)

O=C(Nc1ccc(F)cc1)c1cc(-c2ccncc2)nc2ccccc12
IC50: > 80 µM (inactive)

Cc1nc(Nc2nc(-c3ccccc3)cc(=O)[nH]2)nc2ccccc12
IC50: > 80 µM (inactive)

O=C(Nc1ccc(Cl)cc1)c1cc(-c2ccncc2)nc2ccccc12
IC50: 64 µM (inactive)

Cc1ccc(NC(=O)c2cc(-c3ccncc3)nc3ccccc23)cc1
IC50: > 80 µM (inactive)

Cc1cc(Br)cc(NC(=O)c2cc(-c3ccncc3)nc3ccccc23)c1
IC50: > 80 µM (inactive)

O=C(Nc1ccc(Br)c(C(F)(F)F)c1)c1cc(-c2ccncc2)nc2ccccc12
IC50: > 80 µM (inactive)

O=C(Nc1ccc(C(F)(F)F)cc1)c1cc(-c2ccncc2)nc2ccccc12
IC50: > 80 µM (inactive)
